Where “and” joins values, the source holds several entries; their conditions need not be identical. Identical values can stand only once. Entries after “also recorded” stand apart in the source; their conditions may differ. Like-named read-outs stand apart in the source and are kept apart here.
Experiments:
Vero cells = conditions: African green monkey
HSV-1, strain MacIntyre = assay: Plaque inhibition against HSV-1 strain MacIntyre in A549 cells; assay type: cell-based, herpes simplex virus type 1; conditions: for Percent plaque area (ImageJ): A549 cells, duplicate wells
Method: Background: […] Again, acyclovir was included as a positive control. […] Acyclovir was tested at 0.002 and 0.05 mM. A control, with no treatment was also evaluated. […] After virus adsorption, media was removed and monolayers overlaid with semisolid agarose media containing each drug dilution. Monolayers were fixed and stained with crystal violet to visualize virus plaques. Pictures of the test plates were submitted to client for image analysis. Percent plaque area was calculated using ImageJ, version 1.52i.

Interferon gamma (IFNγ) = assay: Cotton rat RSV lung infection: lung IFNγ gene expression by PCR; assay type: in vivo; conditions: 0.5% soln, 50 μL IN BID, day 5, vs PBS
Method: (§1) Methods: In view of the reduction in hRSV cellular infection in A549 and human airway epithelial cells, an in vivo experiment in the Cotton Rat was carried out using RSVA2 infection. In this study, adult male cotton rats (6-8 weeks of age) were divided into groups of 4 animals each. Animals were pre-bled for serum collection and ear tagged for identification. All animals were infected via intranasal instillation with 0.1 mL of RSV/A2 at 10^5 plaque-forming units (pfu) per animal.
(§2) At each treatment the animals received 50 μL. On day 5, the animals were sacrificed for viral lung titers and cytokine analysis. Interferon gamma (IFNγ) and transforming growth factor beta (TGFβ) gene expression were analyzed by PCR. The cytokine mRNA level was normalized relative to beta actin.

[1] = target: purified recombinant GST-SIRT6 protein (Homo sapiens, UniProt Q8N6T7); conditions: first study
Method: This first set of studies was performed using a Western blot method (Rahnasto-Rilla, 2016, Methods Mol. Biol., 1436:259-269) for the in vitro evaluation of Sirt6 deacetylation activity. […] Acetylation level was detected with anti-H3K9Ac antibody and normalized to total H3 histone (FIG. 5 (b)).

[2] = test system: transforming growth factor beta (TGFβ); assay: Cotton rat RSV lung infection: lung TGFβ gene expression by PCR; assay type: in vivo; conditions: 0.5% soln, 50 μL IN BID, day 5, vs PBS
Method: as §1, §2

Sirt6 = conditions: 60 μM
Method: Sirt6 expression using western blots was evaluated in human corneal epithelial cells. Cell Culture: Human corneal epithelial cells (ATCC) were grown to just below confluency (80-90%) at 37° C., 5% CO2. They were washed twice with sterile phosphate buffered saline (PBS) and serum starved for 2 hours at 37° C. […] They were incubated for either 15, 30, 60 or 120 minutes with treatment. After each time point, treatment was aspirated and cells were washed twice with ice cold PBS. Cells were lysed in ice-cold cell lysis buffer and rotated end-over-end at 4° C. for 30 minutes. They were then centrifuged at 14,000g for 30 minutes at 4° C. […] Samples were stored frozen at -20° C. until performing the Western Blot. […] Proteins were electrophoresed at [MUT] for approximately 50 minutes then transferred to nitrocellulose. After blocking the blot for 1 hour at room temperature in 3% BSA in a standard mixture of tris-buffered saline and Polysorbate 20 (TBST), primary antibody (anti-Sirtuin 6) was added in blocking buffer and incubated overnight at 4° C. The blot was washed 3 times with TBST and HRP-linked secondary antibody added at 1:2000 for 40 minutes at room temperature. The blot was again washed 3 times with TBST and developed with ECL reagents for 1 minute. Images were obtained with ChemiDoclt Imager (UVP, Upland CA) with exposures ranging from 30 seconds to 5 minutes. […]

HRSV [3] = assay: Reduction of HRSV cellular infection in A549 cells (RSV with GFP reporter, infected cells counted); assay type: cell-based, human respiratory syncytial virus
HRSV [4] = assay: Inhibition of HRSV replication in A549 cells (RSV with Renilla luciferase reporter); assay type: cell-based, human respiratory syncytial virus
HRSV [5] = assay: Reduction of HRSV infection in primary human airway epithelial (HAE) cultures (luciferase); assay type: cell-based, human respiratory syncytial virus; conditions: 0.9 and 2.7 mg/ml, days 1 and 3 (24 and 72 hours) post inoculation
RSV/A2 = assay: Cotton rat RSV lung infection: lung viral titer; assay type: in vivo; conditions: 0.5% soln, 50 μL IN BID, day 5, vs PBS
Method: as §1, §2

Chain of purified recombinant GST-SIRT6 protein (Q8N6T7 whole entry): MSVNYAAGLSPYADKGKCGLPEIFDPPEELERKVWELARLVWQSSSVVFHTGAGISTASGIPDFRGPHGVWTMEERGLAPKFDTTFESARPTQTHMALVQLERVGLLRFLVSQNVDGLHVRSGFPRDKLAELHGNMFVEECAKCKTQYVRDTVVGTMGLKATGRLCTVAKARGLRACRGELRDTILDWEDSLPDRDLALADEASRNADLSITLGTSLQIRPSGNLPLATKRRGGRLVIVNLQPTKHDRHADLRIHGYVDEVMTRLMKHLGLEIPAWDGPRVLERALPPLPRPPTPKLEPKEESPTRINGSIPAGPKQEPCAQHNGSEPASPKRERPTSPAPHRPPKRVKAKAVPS

Nc1nc2c(ncn2COCCO)c(=O)[nH]1 [Acyclovir]
Toxicity Grade on Vero Cells (Vero cells; 0.1 μM): 0 | Toxicity Grade on Vero Cells (Vero cells; 2 μM): 0 | Toxicity Grade on Vero Cells (Vero cells; 50 μM): 0 | HSV-1 plaques observed in wells (HSV-1, strain MacIntyre; Acyclovir 0.002 mM): more smaller plaques, but not as many nor as large as the untreated wells | HSV-1 plaques observed in wells (HSV-1, strain MacIntyre; acyclovir 0.05 mM): few small breakthrough plaques

Nc1ncnc2c1ncn2[C@@H]1O[C@H](COP(=O)([O-])OP(=O)([O-])OC[C@H]2OC(O)[C@H](O)[C@@H]2O)[C@@H](O)[C@H]1O.[Li+].[Li+] (some centres unmarked) [Li2-ADPR, dilithium ADPR]
lung IFNγ mRNA (normalized to beta actin) (Interferon gamma (IFNγ)): increase | Sirt6 deacetylation activity (inverse of H3K9Ac / total H3) ([1]; between 0.01 and 1 μM): increasing activation | Sirt6 deacetylation activity (inverse of H3K9Ac / total H3) ([1]; concentrations of 10 μM and above): variable activity | lung TGFβ mRNA (normalized to beta actin) [2]: significant decrease | Sirt6 protein concentration relative to baseline (No Treat lane) (Sirt6; 30 minutes): 155% | Sirt6 protein concentration relative to baseline (No Treat lane) (Sirt6; two hours): returned to baseline | reduction of percentage of A549 cells infected with HRSV (HRSV [3]; 0.1 mg/ml): ~50% | reduction of percentage of A549 cells infected with HRSV (HRSV [3]; 2.7 mg/ml): ~85% | percentage of A549 cells infected with increasing concentrations (HRSV [3]; days 1 and 2 after inoculation): significant reduction | inhibition of RSV replication (luminescence), difference (HRSV [4]; 2.7 mg/ml): five | HRSV replication (luminescence) with increasing concentrations (HRSV [4]; days 1 and 2 after infection): significant dose-dependent inhibition | RSV replication / percentage of cells infected in HAE cultures (luciferase activity) (HRSV [5]): significantly inhibiting; also recorded: significant reduction | Percent plaque area (ImageJ) (HSV-1, strain MacIntyre; 0.1 mM): 8.1% and 8.3% | Percent plaque area (ImageJ) (HSV-1, strain MacIntyre; 0.4 mM): 14.3% and 7.3% | Percent plaque area (ImageJ) (HSV-1, strain MacIntyre; 1.2 mM): 4.8% and 3.8% | HSV-1 plaques observed in wells (HSV-1, strain MacIntyre; Li2-ADPR 0.1 mM): plaques similar in number and size as the untreated wells | HSV-1 plaques observed in wells (HSV-1, strain MacIntyre; Li2-ADPR increased from 0.4 to 1.2 mM): the plaque number decreased and the plaque size decreased | lung RSV titers (RSV/A2): reduced

Reference: patent publication US12233083B2, “Methods for the use of 5′-adenosine diphosphate ribose (ADPR)” (Invirsa, Inc., priority 2018, dated 2025)
